Assay results published in DBAASP.
Converted amounts (≈) assume the structure as drawn. Values belong to the compound of their own block, whether it stands above or below them.

Key:
Test in all cases: ≥ marks a high value that may be exact or a test limit, other limits are often not marked, values filed in µg/mL are converted to µM
[1] = test system: Escherichia coli ATCC 25922
[2] = test system: Staphylococcus aureus MRSA-16
[3] = test system: Staphylococcus aureus MRSA-G
[4] = test system: Pseudomonas aeruginosa ATCC 10419
[5] = test system: Pseudomonas aeruginosa ATCC 21625
[6] = test system: Pseudomonas aeruginosa ATCC 21630
[7] = test system: Pseudomonas aeruginosa ATCC 27853
[8] = test system: Pseudomonas aeruginosa LCCE
[9] = test system: Pseudomonas aeruginosa LCCI
[10] = test system: Pseudomonas aeruginosa LCGE
[11] = test system: Pseudomonas aeruginosa LC
[12] = test system: Salmonella enterica subsp. enterica serovar Typhimurium C77-31
[13] = test system: Staphylococcus aureus ATCC 29213
[14] = test system: Staphylococcus epidermidis ATCC 12228
[15] = test system: Bacillus subtilis DSM 347
Escherichia coli BL21AI = test system: Escherichia coli BL21AI
[16] = test system: Escherichia coli DSM 10233
[17] = test system: Micrococcus luteus ATCC 10240
[18] = test system: Micrococcus luteus DSM 1790
[19] = test system: Staphylococcus aureus ATCC 25023
Bacillus subtilis PS832 = test system: Bacillus subtilis PS832
Escherichia coli DL7 = test system: Escherichia coli DL7
[20] = test system: Klebsiella aerogenes ATCC 13048
[21] = test system: Staphylococcus aureus BCRC 10780
[22] = test system: Staphylococcus sp. BCRC 10451
Streptococcus agalactiae = test system: Streptococcus agalactiae
Vibrio alginolyticus = test system: Vibrio alginolyticus
[23] = test system: Vibrio harveyi BCRC 13812
[24] = test system: Enterococcus faecalis ATCC 29212
Enterococcus faecium = test system: Enterococcus faecium
[25] = test system: Staphylococcus aureus ATCC 25923
[26] = test system: Staphylococcus aureus K35
[27] = test system: Staphylococcus aureus K52
[28] = test system: Acinetobacter baumannii CICC 22934
Bacillus cereus AS1.126 = test system: Bacillus cereus AS1.126
[29] = test system: Enterobacter cloacae CGMCC 1.58
[30] = test system: Enterococcus faecalis CGMCC 1.595
[31] = test system: Enterococcus faecium CGMCC 1.2334
Escherichia coli AS1.349 = test system: Escherichia coli AS1.349
[32] = test system: Klebsiella aerogenes CGMCC 1.876
[33] = test system: Klebsiella pneumoniae subsp. pneumoniae CGMCC 1.176
[34] = test system: Lactococcus lactis AS1.1690
[35] = test system: Proteus mirabilis CICC 22931
[36] = test system: Pseudomonas aeruginosa CGMCC 1.860
[37] = test system: Staphylococcus aureus AS1.72

SMILES: CC[C@H](C)[C@H](NC(=O)[C@H](C)NC(=O)[C@H](CCCCN)NC(=O)[C@@H](NC(=O)CNC(=O)CNC(=O)[C@H](Cc1c[nH]c2ccccc12)NC(=O)[C@H](Cc1ccccc1)NC(=O)[C@H](CCCCN)NC(=O)[C@H](CCCCN)NC(=O)[C@H](Cc1ccccc1)NC(=O)[C@@H](N)CO)C(C)C)C(=O)N[C@@H](Cc1ccccc1)C(=O)N[C@@H](CCCCN)C(=O)NCC(=O)N[C@@H](C)C(=O)N[C@@H](CCCN=C(N)N)C(=O)N[C@@H](CCCCN)C(=O)NCC(=O)N[C@@H](Cc1c[nH]c2ccccc12)C(=O)N[C@@H](CCCCN)C(=O)O [SFKKFWGGVKAIFKGARKGWK]
MIC [1]: 1 µM (≈ 2.43 µg/mL)
MIC [2]: ≥ 32 µM
MIC [3]: ≥ 32 µM

SMILES: CC[C@H](C)[C@H](NC(=O)[C@H](CCCCN)NC(=O)[C@H](CCCCN)NC(=O)[C@H](CC(C)C)NC(=O)[C@H](CCCN=C(N)N)NC(=O)[C@H](CCCCN)NC(=O)[C@H](CCCN=C(N)N)NC(=O)[C@H](CCCCN)NC(=O)[C@H](CCCCN)NC(=O)[C@H](CCCCN)NC(=O)[C@H](CCCN=C(N)N)NC(=O)[C@H](CC(C)C)NC(=O)[C@H](CCCN=C(N)N)NC(=O)[C@H](CCCN=C(N)N)NC(=O)[C@H](Cc1ccccc1)NC(=O)[C@@H](N)CCCN=C(N)N)C(N)=O [RFRRLRKKKRKRLKKI]
MIC [1]: 128 µM (≈ 283 µg/mL)
MIC [4]: ≥ 256 µM
MIC [5]: ≥ 256 µM
MIC [6]: ≥ 256 µM
MIC [7]: 128 µM (≈ 283 µg/mL)
MIC [8]: ≥ 256 µM
MIC [9]: ≥ 256 µM
MIC [10]: ≥ 256 µM
MIC [11]: ≥ 256 µM
MIC [12]: ≥ 256 µM
MIC [13]: 128 µM (≈ 283 µg/mL)
MIC [14]: 128 µM (≈ 283 µg/mL)

SMILES: CC[C@H](C)[C@H](NC(=O)[C@H](CCCN=C(N)N)NC(=O)[C@H](CCCN=C(N)N)NC(=O)[C@@H]1CCCN1C(=O)[C@@H]1CCCN1C(=O)[C@H](CCCN=C(N)N)NC(=O)[C@@H]1CCCN1C(=O)[C@H](CCCN=C(N)N)NC(=O)[C@@H]1CCCN1C(=O)[C@H](CC(C)C)NC(=O)[C@H](Cc1ccc(O)cc1)NC(=O)[C@@H]1CCCN1C(=O)[C@@H]1CCCN1C(=O)[C@H](CCCCN)NC(=O)[C@H](CC(=O)O)NC(=O)[C@@H](N)C(C)C)C(=O)N[C@@H](Cc1ccc(O)cc1)C(=O)N[C@@H](CC(N)=O)C(=O)O [VDKPPYLPRPRPPRRIYN]
MIC [15]: ≥ 55.9 µM
MIC (Escherichia coli BL21AI): 28.6 µM (≈ 64 µg/mL)
MIC [16]: ≥ 55.9 µM
MIC [17]: ≥ 57.3 µM
MIC [18]: 6.98 µM (≈ 15.6 µg/mL)

SMILES: CC(C)C[C@H](NC(=O)[C@H](CC(C)C)NC(=O)[C@H](Cc1ccccc1)NC(=O)[C@H](CCCN=C(N)N)NC(=O)[C@H](CCCN=C(N)N)NC(=O)[C@H](CC(C)C)NC(=O)[C@H](Cc1cnc[nH]1)NC(=O)[C@H](CCCN=C(N)N)NC(=O)[C@H](CC(C)C)NC(=O)[C@@H](NC(=O)[C@H](C)NC(=O)[C@@H](N)CO)C(C)C)C(=O)N[C@@H](CCCN=C(N)N)C(=O)N[C@@H](CCCCN)C(=O)N[C@@H](Cc1cnc[nH]1)C(=O)N[C@@H](CCCN=C(N)N)C(=O)N[C@@H](CCCCN)C(=O)N[C@@H](Cc1cnc[nH]1)C(=O)O [SAVLRHLRRFLLRKHRKH]
MIC [28]: ≥ 100 µM
MIC (Bacillus cereus AS1.126): 1.56 µM (≈ 3.63 µg/mL)
MIC [29]: ≥ 100 µM
MIC [30]: 3.13 µM (≈ 7.27 µg/mL)
MIC [31]: 3.13 µM (≈ 7.27 µg/mL)
MIC (Escherichia coli AS1.349): ≥ 100 µM
MIC [32]: ≥ 100 µM
MIC [33]: ≥ 100 µM
MIC [34]: 4.69 µM (≈ 10.9 µg/mL)
MIC [35]: ≥ 100 µM
MIC [36]: ≥ 100 µM
MIC [37]: 1.56 µM (≈ 3.63 µg/mL)

Continued, values first:

MIC [19]: 14.1 µM (≈ 16 µg/mL)
SMILES: CC(C)C[C@H](NC(=O)[C@H](CCCN=C(N)N)NC(=O)[C@H](CC(C)C)NC(=O)[C@H](CC(C)C)NC(=O)[C@H](CC(C)C)NC(=O)[C@H](CC(C)C)NC(=O)[C@H](CCCCN)NC(=O)[C@H](CC(C)C)NC(=O)[C@@H](N)CCCN=C(N)N)C(N)=O [RLKLLLLRL]

MIC (Bacillus subtilis PS832): 2 µM (≈ 4.65 µg/mL)
MIC (Escherichia coli DL7): 16 µM (≈ 37.2 µg/mL)
MIC [20]: ≥ 32 µM
MIC [14]: 4 µM (≈ 9.3 µg/mL)
SMILES: CC(C)C[C@H](NC(=O)CNC(=O)[C@H](C)NC(=O)[C@H](CCCN=C(N)N)NC(=O)[C@H](Cc1cnc[nH]1)NC(=O)[C@H](C)NC(=O)[C@@H](N)CC(=O)O)C(=O)N[C@@H](CCC(N)=O)C(=O)N[C@@H](Cc1ccccc1)C(=O)N1CCC[C@H]1C(=O)N[C@H](C(=O)NCC(=O)N[C@@H](CCCN=C(N)N)C(=O)N[C@H](C(=O)N[C@@H](Cc1cnc[nH]1)C(=O)N[C@@H](CCCN=C(N)N)C(=O)N[C@@H](CC(C)C)C(=O)N[C@@H](CC(C)C)C(=O)N[C@@H](CCCN=C(N)N)C(=O)N[C@@H](CCCCN)C(N)=O)C(C)C)C(C)C [DAHRAGLQFPVGRVHRLLRK]

MIC [21]: 4.56 µM (≈ 6.44 µg/mL)
MIC [22]: ≥ 72.9 µM
MIC (Streptococcus agalactiae): ≥ 72.9 µM
MIC (Vibrio alginolyticus): 4.56 µM (≈ 6.44 µg/mL)
MIC [23]: 4.56 µM (≈ 6.44 µg/mL)
SMILES: CC[C@H](C)[C@H](NC(=O)[C@H](Cc1ccccc1)NC(C)=O)C(=O)N[C@@H](Cc1ccccc1)C(=O)N[C@@H](Cc1cnc[nH]1)C(=O)N[C@H](C(=O)N[C@H](C(=O)N[C@@H](CCCCN)C(=O)NCC(=O)N[C@@H](CC(C)C)C(=O)N[C@@H](Cc1ccccc1)C(=O)N[C@@H](Cc1cnc[nH]1)C(N)=O)[C@@H](C)CC)[C@@H](C)CC [FIFHIIKGLFH]

MIC [24]: > 168 µM
MIC (Enterococcus faecium): ≥ 116 µM
MIC [25]: 83.7 µM (≈ 115 µg/mL)
MIC [26]: ≥ 58.2 µM
MIC [27]: ≥ 58.2 µM
SMILES: CC[C@H](C)[C@H](NC(=O)CNC(=O)[C@H](CO)NC(=O)[C@H](CC(C)C)NC(=O)[C@@H](NC(=O)[C@H](CCCN=C(N)N)NC(=O)CNC(=O)[C@@H](NC(=O)[C@H](CC(C)C)NC(=O)[C@@H]1CCCN1C(=O)[C@H](CC(C)C)NC(=O)[C@@H](N)CCCCN)[C@@H](C)CC)C(C)C)C(=O)N[C@@H](CC(C)C)C(N)=O [KLPLIGRVLSGIL]
